Assay results: publication PMC9102953, “New Derivatives of 5-Substituted Uracils: Potential Agents with a Wide Spectrum of Biological Activity” (Molecules, 2022)
Read-outs that look alike come from different tables or passages of the source.

Experiments:
HCoV-OC43 = assay: Antiviral cytopathicity assay, HCoV-OC43 in HEL 299 cells; assay type: cell-based
[1] = tested on: respiratory syncytial virus (RSV) strain A Long; assay: microbe, parasite or virus in culture; assay type: cell-based; settings: human respiratory syncytial virus, HEL 299, read-out: EC50 (μM) RSV A Long, HEL 299
[2] = tested on: yellow fever virus (YFV) strain 17 D; assay: microbe, parasite or virus in culture; assay type: cell-based; settings: Yellow fever virus, Huh-7, read-out: EC50 (μM) YFV 17D, Huh7
a variety of RNA viruses = assay type: cell-based
[3] = tested on: HEL299, Huh 7 and MDCK cells
in vitro [4] = settings: human
in vitro [5] = settings: human; remark: listed apart in the source
in vitro [6] = settings: dog
[7] = tested on: varicella-zoster virus (VZV) strain TK−; assay: microbe, parasite or virus in culture; assay type: cell-based; settings: Human alphaherpesvirus 3, HEL, read-out: EC50, formation of viral plaques, TK-varicella-zoster virus strain
[8] = tested on: human cytomegalovirus (HCMV) strain AD-169; assay: microbe, parasite or virus in culture; assay type: cell-based; settings: Human betaherpesvirus 5, AD169, HEL, read-out: EC50, formation of viral plaques, cytomegalovirus strain AD169
[9] = tested on: human cytomegalovirus (HCMV) strain Davis; assay: microbe, parasite or virus in culture; assay type: cell-based; settings: Human betaherpesvirus 5, HEL, read-out: EC50, formation of viral plaques, cytomegalovirus strain Davis
HEL cells = assay: Change of cell morphology in HEL cells; assay type: cell-based, human
[10] = Betacoronavirus 1, OC43, HEL 299, read-out: EC50 (μM) HCoV-OC43, HEL 299

| Compound | EC50 (HCoV-OC43; [10]) | EC50 [1] | EC50 [2] | antiviral activity in the screening (in words) (a variety of RNA viruses) | cytotoxicity in the tested cell lines (in words) [3] | CC50 (in vitro [4]) | CC50 (in vitro [5]) | CC50 (in vitro [6]) | EC50 (HCoV-OC43; Betacoronavirus 1, OC43, HEL 299 cells, reduction of virus-induced cytopathicity by 50%, read-out: EC50 (μM) HCoV-OC43, HEL 299) | EC50 [7] | EC50 [8] | EC50 [9] | minimum concentration that leads to the detection of changes in cell morphology (HEL cells) |
| --- | --- | --- | --- | --- | --- | --- | --- | --- | --- | --- | --- | --- | --- |
| Cc1cc(C)cc(Oc2cn(C3C=CC(O)C3)c(=O)[nH]c2=O)c1 (racemic) [(±)-10a, (±)-1-(4′-Hydroxycyclopent-2′-en-1′-yl)-5-(3″,5″-dimethylphenoxy)uracil] | > 100 µM | > 100 µM | > 100 µM | did not show any activity | marked cytotoxicity | > 100 µM | > 100 µM | 33.8 µM |  |  |  |  |  |
| CC(C)(C)c1ccc(Nc2cn(C3C=CC(O)C3)c(=O)[nH]c2=O)cc1 (racemic) [(±)-3e, (±)-1-(4′-Hydroxycyclopent-2′-en-1′-yl)-5-((4″-tert-butyl)phenylamino)uracil] | > 100 µM | > 100 µM | > 100 µM | did not show any activity | marked cytotoxicity | > 100 µM | > 100 µM | 63 µM |  |  |  |  |  |
| CC(C)(C)c1ccc(Nc2cn(C3C=CC(O)C3)c(=O)n(C3C=CC(O)C3)c2=O)cc1 (racemic) [(±)-4e, (±)-1-(1-(4′-hydroxycyclopent-2′-ene-1′-yl))-3-(4‴-hydroxycyclopent-2‴-en-1‴-yl)-5-((4″-tert-butyl)phenylamino)uracil] |  | > 100 µM | > 100 µM | did not show any activity | marked cytotoxicity |  |  | 19.5 µM | > 100 µM | 48.9 µM | 76.5 µM | 40.9 µM | greater than 100 μM |
